# Biological target: T1, CRF1 receptors (Homo sapiens, UniProt P34998)
# T1 construct: endogenous in cells; host or cells: IMR-32 cells, transformed with 2.5 µM 5'-bromo-2'-deoxyuridine for 10 days; membrane preparation
# T1 sequence (P34998 24-415): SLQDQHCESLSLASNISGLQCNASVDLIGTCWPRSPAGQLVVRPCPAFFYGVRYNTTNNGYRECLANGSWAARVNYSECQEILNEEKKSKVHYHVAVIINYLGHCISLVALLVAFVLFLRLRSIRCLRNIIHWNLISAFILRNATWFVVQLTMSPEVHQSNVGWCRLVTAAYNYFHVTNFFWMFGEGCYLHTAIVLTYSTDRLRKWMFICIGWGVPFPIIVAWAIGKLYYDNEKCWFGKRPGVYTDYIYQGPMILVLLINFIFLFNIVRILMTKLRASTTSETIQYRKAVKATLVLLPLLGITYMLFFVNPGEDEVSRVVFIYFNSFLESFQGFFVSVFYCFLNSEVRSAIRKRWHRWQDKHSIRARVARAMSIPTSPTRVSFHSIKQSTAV
# Assay: CRF1 receptor radioligand binding assay ([125I]-oCRF competition, IMR-32 cell membranes)
# Conditions: not given
# Method in brief: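 Buffer: Tris pH 7.2 with MgCl2, BSA, Triton X-100, aprotinin, leupeptin; reaction stopped with ice-cold wash and filtered. Nonspecific binding set with 10 μM oCRF.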
row,Structure (SMILES),Ki [nM]
1,"Cc1cc(C)c(-n2c3ccccc3n3c(CN(CC4CC4)CC(F)(F)C(F)(F)F)c(C(F)(F)F)nc23)c(C)c1 [Example 155, Cyclopropylmethyl-(2,2,3,3,3-pentafluoro-propyl)-[2-trifluoromethyl-8-(2,4,6-trimethyl-phenyl)-8H-1,3a,8-triaza-cyclopenta[α]inden-3-ylmethyl]-amine]",< 100

# Same assay, conditions: IMR-32 cell membranes, [125I]-oCRF 100 pM; read-out: Ki (CRF-1R)
row,Ki [nM],Structure (SMILES)
1,< 1000,"CCN(Cc1c(C(F)(F)F)nc2n1CCCN2c1c(C)cc(C)cc1Cl)CC1CCC1 [Example 137, [8-(2-Chloro-4,6-dimethyl-phenyl)-2-trifluoromethyl-5,6,7,8-tetrahydro-imidazo[1,2-a]pyrimidin-3-ylmethyl]-cyclobutylmethyl-ethyl-amine]"
2,< 100,"Cc1cc(C)c(N2CCCn3c2nc(C(F)(F)F)c3CN2CCCC2Cc2ccccc2)c(Cl)c1 (centres unmarked) [Example 138, 3-(2-Benzyl-pyrrolidin-1-ylmethyl)-8-(2-chloro-4,6-dimethyl-phenyl)-2-trifluoromethyl-5,6,7,8-tetrahydro-imidazo[1,2-a]pyrimidine]"
3,< 10000,"CCCN(CC1CC1)C(=O)c1c(C)nc2n(-c3c(C)cc(C)cc3C)c3ccc(F)cc3n12 [Example 139, 5-Fluoro-2-methyl-8-(2,4,6-trimethyl-phenyl)-8H-1,3a,8-triaza-cyclopenta[α]indene-3-carboxylic acid cyclopropylmethyl-propyl-amide]"
4,< 1000,"CCCN(CC1CC1)C(=O)c1c(C)nc2n(-c3c(C)cc(C)cc3C)c3ccccc3n12 [Example 140, 2-Methyl-8-(2,4,6-trimethyl-phenyl)-8H-1,3a,8-triaza-cyclopenta[α]indene-3-carboxylic acid cyclopropylmethyl-propyl-amide]"
5,< 1000,"CCCN(CC1CC1)C(=O)c1c(CC)nc2n(-c3c(C)cc(C)cc3C)c3ccccc3n12 [Example 141, 2-Ethyl-8-(2,4,6-trimethyl-phenyl)-8H-1,3a,8-triaza-cyclopenta[a]indene-3-carboxylic acid cyclopropylmethyl-propyl-amide]"
6,< 10000,"CCCN(CC1CC1)C(=O)c1c(C(F)(F)F)nc2n(-c3c(C)cc(C)cc3C)c3ccccc3n12 [Example 142, 2-trifluoromethyl-8-(2,4,6-trimethylphenyl)-8H-1,3a,8-triaza-cyclopenta[a]indene-3-carboxylic acid cyclopropylmethyl-propyl-amide]"
7,< 10000,"CCCN(CC1CC1)C(=O)c1c(C)nc2n(-c3ccc(Cl)cc3Cl)c3ccccc3n12 [Example 143, 8-(2,4-Dichloro-phenyl)-2-methyl-8H-1,3a,8-triaza-cyclopenta[a]indene-3-carboxylic acid cyclopropylmethyl-propyl-amide]"
8,< 100,"CCCN(CC1CC1)C(=O)c1c(CC)nc2n(-c3c(C)cc(C)cc3C)c3ccc(F)cc3n12 [Example 144, 2-Ethyl-5-fluoro-8-(2,4,6-trimethyl-phenyl)-8H-1,3a,8-triaza-cyclopenta[a]indene-3-carboxylic acid cyclopropylmethyl-propyl-amide]"
9,< 100,"CCCN(Cc1c(C)nc2n(-c3c(C)cc(C)cc3C)c3ccc(F)cc3n12)CC1CC1 [Example 145, Cyclopropylmethyl-[5-fluoro-2-methyl-8-(2,4,6-trimethyl-phenyl)-8H-1,3a,8-triaza-cyclopenta[a]inden-3-ylmethyl]-propyl-amine]"
10,< 100,"CCCN(Cc1c(C)nc2n(-c3c(C)cc(C)cc3C)c3ccccc3n12)CC1CC1 [Example 146, Cyclopropylmethyl-[2-methyl-8-(2,4,6-trimethyl-phenyl)-8H-1,3a,8-triaza-cyclopenta[α]inden-3-ylmethyl]-propyl-amine]"
11,< 100,"CCCN(Cc1c(CC)nc2n(-c3c(C)cc(C)cc3C)c3ccccc3n12)CC1CC1 [Example 147, Cyclopropylmethyl-[2-ethyl-8-(2,4,6-trimethyl-phenyl)-8H-1,3a,8-triaza-cyclopenta[a]inden-3-ylmethyl]-propyl-amine]"
12,< 100,"CCCN(Cc1c(C(F)(F)F)nc2n(-c3c(C)cc(C)cc3C)c3ccccc3n12)CC1CC1 [Example 148, Cyclopropylmethyl-propyl-[2-trifluoromethyl-8-(2,4,6-trimethyl-phenyl)-8H-1,3a,8-triaza-cyclopenta[α]inden-3-ylmethyl]-amine]"
13,< 1000,"CCCN(Cc1c(CC)nc2n(-c3c(C)cc(C)cc3C)c3ccc(F)cc3n12)CC1CC1 [Example 149, Cyclopropylmethyl-[2-ethyl-5-fluoro-8-(2,4,6-trimethyl-phenyl)-8H-1,3a,8-triaza-cyclopenta[α]inden-3-ylmethyl]-propyl-amine]"
14,< 100,Cc1cc(C)c(-n2c3ccccc3n3c(CN(CC4CC4)CC(F)(F)F)c(C(F)(F)F)nc23)c(C)c1 [Example 150]
15,< 100,"Cc1cc(C)c(-n2c3ccccc3n3c(CN(CC4CC4)CC4CC4)c(C(F)(F)F)nc23)c(C)c1 [Example 151, Bis-cyclopropylmethyl-[2-trifluoromethyl-8-(2,4,6-trimethyl-phenyl)-8H-1,3a,8-triaza-cyclopenta[α]inden-3-ylmethyl]-amine]"
16,< 100,"Cc1cc(C)c(-n2c3ccccc3n3c(CN(CCC(F)(F)F)CC4CC4)c(C(F)(F)F)nc23)c(C)c1 [Example 152, Cyclopropylmethyl-[2-trifluoromethyl-8-(2,4,6-trimethyl-phenyl)-8H-1,3a,8-triaza-cyclopenta[α]inden-3-ylmethyl]-(3,3,3-trifluoro-propyl)-amine]"
17,< 100,"CCCN(Cc1c(C(F)(F)F)nc2n(-c3c(C)cc(C)cc3C)c3ccccc3n12)CC1CCC1 [Example 153, Cyclobutylmethyl-propyl-[2-trifluoromethyl-8-(2,4,6-trimethyl-phenyl)-8H-1,3a,8-triaza-cyclopenta[α]inden-3-ylmethyl]-amine]"
18,< 100,"CCN(Cc1c(C(F)(F)F)nc2n(-c3c(C)cc(C)cc3C)c3ccccc3n12)CC1CC1 [Example 154, Cyclopropylmethyl-ethyl-[2-trifluoromethyl-8-(2,4,6-trimethyl-phenyl)-8H-1,3a,8-triaza-cyclopenta[α]inden-3-ylmethyl]-amine]"
19,< 100,"Cc1cc(C)c(-n2c3ccccc3n3c(CN(CC4CCC4)CC(F)(F)F)c(C(F)(F)F)nc23)c(C)c1 [Example 156, Cyclobutylmethyl-(2,2,2-trifluoro-ethyl)-[2-trifluoromethyl-8-(2,4,6-trimethyl-phenyl)-8H-1,3a,8-triaza-cyclopenta[α]inden-3-ylmethyl]-amine]"
20,< 100,"CCCN(CCC(F)(F)F)Cc1c(C(F)(F)F)nc2n(-c3c(C)cc(C)cc3C)c3ccccc3n12 [Example 157, Propyl-[2-trifluoromethyl-8-(2,4,6-trimethyl-phenyl)-8H-1,3a,8-triaza-cyclopenta[α]inden-3-ylmethyl]-(3,3,3-trifluoro-propyl)-amine]"
21,< 100,"CCCN(Cc1c(C(F)(F)F)nc2n(-c3c(C)cc(C)cc3C)c3ccccc3n12)CC(F)(F)C(F)(F)F [Example 158, (2,2,3,3,3-Pentafluoro-propyl)-propyl-[2-trifluoromethyl-8-(2,4,6-trimethyl-phenyl)-8H-1,3a,8-triaza-cyclopenta[α]inden-3-ylmethyl]-amine]"
22,< 100,"CCCN(Cc1c(C(F)(F)F)nc2n(-c3c(C)cc(C)cc3C)c3ccccc3n12)CC(F)(F)F [Example 159, Propyl-(2,2,2-trifluoro-ethyl)-[2-trifluoromethyl-8-(2,4,6-trimethyl-phenyl)-8H-1,3a,8-triaza-cyclopenta[α]inden-3-ylmethyl]-amine]"

# From patent publication US7125990B2, “Imidazolyl derivatives as corticotropin releasing factor inhibitors” (Bristol-Myers Squibb COmpany, priority 2001, dated 2006)
